# Assay results as given in ChEMBL document CHEMBL6153155, “Novel Cyclohexyl Amido Acid Antagonists of Lysophosphatidic Acid Type 1 Receptor for the Treatment of Pulmonary Fibrosis” (ACS Med Chem Lett, 2025).
# What was measured:
# [1] = biological target: Lysophosphatidic acid receptor 1 (Homo sapiens, UniProt Q92633); assay: Antagonist activity at human LPA1 expressed in CHO cells incubated for 30 mins by FLIPR-based calcium mobilization assay
# [2] = Lipophilicity, logD of compound at pH 7.4 by chromatographic hydrophobicity index method; format: physicochemical; details: buffer
# [3] = Metabolic stability in female C57BL/6J mouse liver microsomes assessed as intrinsic clearance measured per mg of protein at 0.5 uM measured upto 45 mins in presence of NADPH regenerating system by HPLC-MS/MS analysis; format: ADME, Microsome; details: read-out: CLH
# [4] = Metabolic stability in human liver microsomes assessed as intrinsic clearance measured per mg of protein at 0.5 uM measured upto 45 mins in presence of NADPH regenerating system by HPLC-MS/MS analysis; format: ADME, Microsome; details: read-out: CLH
# BSEP = BSEP (Homo sapiens, UniProt O95342); assay: Inhibition of BSEP in cryopreserved sandwich-cultured human hepatocytes by measuring reduction in TCA biliary clearance using taurocholic acid as substrate at 50 uM relative to control; format: cell-based, Hepatocyte; details: cryopreserved sandwich-cultured hepatocytes, probe taurocholic acid
# [5] = biological target: Lysophosphatidic acid receptor 1 (Mus musculus, UniProt P61793); assay: Antagonist activity at mouse LPA1 transfected in human HeLa cells incubated for 30 mins by FLIPR-based calcium mobilization assay; format: cell-based
# [6] = Aqueous solubility of the compound at pH 7.4; format: physicochemical; details: buffer
# Bile salt export pump = Bile salt export pump (Homo sapiens, UniProt O95342); assay: Inhibition of BSEP in cryopreserved sandwich-cultured human hepatocytes by measuring reduction in TCA biliary clearance using taurocholic acid as substrate; format: cell-based, Hepatocyte
# Mus musculus [7] = assay: Inhibition of LPA-stimulated histamine release in male CD1 mouse plasma assessed as effective dose administered as po dose pretreated for 30 mins followed by LPA addition measured after 2 mins by enzyme immunoassay; format: functional; details: 32 min
# [8] = Antiproliferative activity against LPA treated human HLF cells preincubated for 1 hr followed by LPA stimulation and measured after 24 hrs by BrdU assay; details: read-out: pIC50 (converted)
# [9] = Clearance in female C57BL/6J mouse at 2 mg/kg, iv measured after 24 hrs by UPLC-MS/MS analysis; format: ADME, organism-based; details: in vivo
# [10] = Volume of distribution at steady state in female C57BL/6J mouse at 2 mg/kg, iv measured after 24 hrs by UPLC-MS/MS analysis; format: ADME, organism-based; details: in vivo, read-out: Vdss
# [11] = Oral bioavailability in female C57BL/6J mouse at 2 mg/kg, iv measured after 24 hrs by UPLC-MS/MS analysis; format: ADME, organism-based; details: in vivo
# [12] = Half life in female C57BL/6J mouse at 2 mg/kg, iv measured after 24 hrs by UPLC-MS/MS analysis; format: ADME, organism-based; details: in vivo
# [13] = Total Cmax in female C57BL/6J mouse plasma at 30 mg/kg, po measured after 24 hrs by UPLC-MS/MS analysis; format: ADME, organism-based
# [14] = Unbound Cmax in female C57BL/6J mouse plasma at 30 mg/kg, po measured after 24 hrs by UPLC-MS/MS analysis; format: ADME, organism-based; details: in vivo
# [15] = Total AUClast in female C57BL/6J mouse plasma at 30 mg/kg, po measured after 24 hrs by UPLC-MS/MS analysis; format: ADME, organism-based; details: in vivo
# [16] = Unbound AUClast in female C57BL/6J mouse plasma at 30 mg/kg, po measured after 24 hrs by UPLC-MS/MS analysis; format: ADME, organism-based; details: in vivo
# [17] = Tlast in female C57BL/6J mouse plasma at 30 mg/kg, po measured after 24 hrs by UPLC-MS/MS analysis; format: ADME, organism-based; details: in vivo
# [18] = Total Cmax in female C57BL/6J mouse lung at 30 mg/kg, po measured after 24 hrs by UPLC-MS/MS analysis; format: ADME, organism-based
# [19] = Unbound Cmax in female C57BL/6J mouse lung at 30 mg/kg, po measured after 24 hrs by UPLC-MS/MS analysis; format: ADME, organism-based; details: in vivo
# [20] = Total AUClast in female C57BL/6J mouse lung at 30 mg/kg, po measured after 24 hrs by UPLC-MS/MS analysis; format: ADME, organism-based; details: in vivo
# [21] = Unbound AUClast in female C57BL/6J mouse lung at 30 mg/kg, po measured after 24 hrs by UPLC-MS/MS analysis; format: ADME, organism-based; details: in vivo
# [22] = Tlast in female C57BL/6J mouse lung at 30 mg/kg, po measured after 24 hrs by UPLC-MS/MS analysis; format: ADME, organism-based; details: in vivo
# [23] = biological target: Phosphatidylcholine translocator ABCB4 (Homo sapiens, UniProt P21439); assay: Inhibition of MDR3 in human hepatocytes in the presence of TCA incubated for 3 hrs by LC-MS/MS; format: cell-based, Hepatocyte
# [24] = biological target: ATP-binding cassette sub-family C member 2 (Homo sapiens, UniProt Q92887); assay: Inhibition of MRP2 (unknown origin) in presence of ATP by membrane vesicular transport assay; format: cell membranes, Membrane vesicle
# [25] = biological target: ATP-binding cassette sub-family C member 3 (Homo sapiens, UniProt O15438); assay: Inhibition of MRP3 (unknown origin) in presence of ATP by membrane vesicular transport assay; format: cell membranes, Membrane vesicle
# [26] = biological target: T1, ATP-binding cassette sub-family C member 4 (Homo sapiens, UniProt O15439); assay: Inhibition of MRP4 (unknown origin) in presence of ATP by membrane vesicular transport assay; format: cell membranes, Membrane vesicle
# T1 sequence (O15439 whole entry): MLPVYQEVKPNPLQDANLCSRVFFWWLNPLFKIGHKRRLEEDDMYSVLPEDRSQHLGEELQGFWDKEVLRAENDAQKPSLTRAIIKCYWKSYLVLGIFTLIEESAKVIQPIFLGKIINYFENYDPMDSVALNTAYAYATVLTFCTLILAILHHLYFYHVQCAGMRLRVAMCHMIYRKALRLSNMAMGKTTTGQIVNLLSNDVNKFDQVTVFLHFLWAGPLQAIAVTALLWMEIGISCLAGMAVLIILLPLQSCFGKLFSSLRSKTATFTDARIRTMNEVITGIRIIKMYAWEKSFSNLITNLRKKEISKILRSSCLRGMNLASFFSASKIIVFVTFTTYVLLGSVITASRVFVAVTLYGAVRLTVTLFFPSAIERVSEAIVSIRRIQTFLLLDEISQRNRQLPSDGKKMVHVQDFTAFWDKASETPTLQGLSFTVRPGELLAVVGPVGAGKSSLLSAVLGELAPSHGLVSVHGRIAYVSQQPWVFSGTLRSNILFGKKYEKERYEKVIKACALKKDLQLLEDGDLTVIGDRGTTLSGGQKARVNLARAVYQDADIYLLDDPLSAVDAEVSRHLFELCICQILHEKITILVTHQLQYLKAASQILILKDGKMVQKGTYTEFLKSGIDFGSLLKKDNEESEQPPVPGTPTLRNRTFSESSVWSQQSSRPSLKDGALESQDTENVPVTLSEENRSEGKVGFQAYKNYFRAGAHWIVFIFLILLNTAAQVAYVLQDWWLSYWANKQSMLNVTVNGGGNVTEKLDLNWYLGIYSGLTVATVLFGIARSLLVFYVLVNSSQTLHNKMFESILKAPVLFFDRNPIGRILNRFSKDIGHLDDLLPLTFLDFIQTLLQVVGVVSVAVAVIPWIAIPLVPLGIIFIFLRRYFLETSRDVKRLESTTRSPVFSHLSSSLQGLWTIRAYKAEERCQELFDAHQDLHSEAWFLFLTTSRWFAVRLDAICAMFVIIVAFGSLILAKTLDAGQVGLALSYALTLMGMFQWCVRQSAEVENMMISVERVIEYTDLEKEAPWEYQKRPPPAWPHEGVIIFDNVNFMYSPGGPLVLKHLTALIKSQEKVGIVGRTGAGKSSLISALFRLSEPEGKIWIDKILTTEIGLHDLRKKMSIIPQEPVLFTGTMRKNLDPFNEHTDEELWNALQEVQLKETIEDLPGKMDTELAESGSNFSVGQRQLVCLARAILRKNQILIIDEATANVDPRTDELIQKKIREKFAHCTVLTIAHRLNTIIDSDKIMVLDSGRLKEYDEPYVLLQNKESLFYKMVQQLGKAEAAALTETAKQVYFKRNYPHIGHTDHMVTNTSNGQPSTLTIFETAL
# [27] = biological target: T2, Solute carrier organic anion transporter family member 1B1 (Homo sapiens, UniProt Q9Y6L6); assay: Inhibition of human OATP1B1 in HEK293 cells; format: cell-based
# T2 sequence (Q9Y6L6 whole entry): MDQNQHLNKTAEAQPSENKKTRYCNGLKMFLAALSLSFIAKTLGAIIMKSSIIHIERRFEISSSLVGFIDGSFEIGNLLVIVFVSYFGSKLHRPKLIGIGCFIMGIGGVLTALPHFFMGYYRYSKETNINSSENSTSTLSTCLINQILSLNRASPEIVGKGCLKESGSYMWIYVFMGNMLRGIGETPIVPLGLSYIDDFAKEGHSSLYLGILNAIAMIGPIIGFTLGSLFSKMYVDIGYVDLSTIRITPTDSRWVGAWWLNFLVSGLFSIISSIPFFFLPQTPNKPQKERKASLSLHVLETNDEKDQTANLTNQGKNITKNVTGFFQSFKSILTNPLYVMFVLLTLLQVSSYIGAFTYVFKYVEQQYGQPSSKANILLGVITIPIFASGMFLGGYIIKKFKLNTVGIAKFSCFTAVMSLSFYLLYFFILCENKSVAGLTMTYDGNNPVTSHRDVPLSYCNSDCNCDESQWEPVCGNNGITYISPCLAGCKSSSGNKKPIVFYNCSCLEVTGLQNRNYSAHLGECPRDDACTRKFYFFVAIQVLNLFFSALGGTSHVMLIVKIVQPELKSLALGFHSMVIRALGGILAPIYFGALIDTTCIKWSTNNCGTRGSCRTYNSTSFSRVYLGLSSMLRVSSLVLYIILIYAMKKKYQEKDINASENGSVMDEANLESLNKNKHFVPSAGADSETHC
# [28] = biological target: T3, Solute carrier organic anion transporter family member 1B3 (Homo sapiens, UniProt Q9NPD5); assay: Inhibition of human OATP1B3 in HEK293 cells; format: cell-based
# T3 sequence (Q9NPD5 whole entry): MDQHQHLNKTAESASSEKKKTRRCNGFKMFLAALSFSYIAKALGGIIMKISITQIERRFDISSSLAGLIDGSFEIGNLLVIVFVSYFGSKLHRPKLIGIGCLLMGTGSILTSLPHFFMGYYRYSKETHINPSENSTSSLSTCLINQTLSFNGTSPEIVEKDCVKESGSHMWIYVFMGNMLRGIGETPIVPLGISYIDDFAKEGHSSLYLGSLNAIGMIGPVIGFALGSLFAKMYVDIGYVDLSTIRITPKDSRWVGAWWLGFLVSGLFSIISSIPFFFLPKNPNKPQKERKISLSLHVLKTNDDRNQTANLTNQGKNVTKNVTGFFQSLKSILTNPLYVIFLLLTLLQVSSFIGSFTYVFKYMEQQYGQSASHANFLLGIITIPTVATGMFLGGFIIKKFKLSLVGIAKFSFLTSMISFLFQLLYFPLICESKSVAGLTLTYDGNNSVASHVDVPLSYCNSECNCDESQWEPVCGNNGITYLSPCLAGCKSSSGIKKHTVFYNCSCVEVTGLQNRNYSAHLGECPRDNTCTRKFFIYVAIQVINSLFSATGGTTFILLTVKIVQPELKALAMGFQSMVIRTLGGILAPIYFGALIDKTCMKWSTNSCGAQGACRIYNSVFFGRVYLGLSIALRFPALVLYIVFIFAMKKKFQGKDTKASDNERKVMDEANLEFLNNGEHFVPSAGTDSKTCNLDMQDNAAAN
# Mus musculus [29] = assay: Antifibrotic activity against bleomycin-induced lung fibrosis in male C57Bl/6 mouse model assessed as reduction in ashcroft score at 50 mg/kg, po bid administered from day 7 to 21 relative to control; format: functional; design: scale not given: the % may be the effect or the level left; details: time 15 day
# Bile salt export pump, sequence (O95342 whole entry): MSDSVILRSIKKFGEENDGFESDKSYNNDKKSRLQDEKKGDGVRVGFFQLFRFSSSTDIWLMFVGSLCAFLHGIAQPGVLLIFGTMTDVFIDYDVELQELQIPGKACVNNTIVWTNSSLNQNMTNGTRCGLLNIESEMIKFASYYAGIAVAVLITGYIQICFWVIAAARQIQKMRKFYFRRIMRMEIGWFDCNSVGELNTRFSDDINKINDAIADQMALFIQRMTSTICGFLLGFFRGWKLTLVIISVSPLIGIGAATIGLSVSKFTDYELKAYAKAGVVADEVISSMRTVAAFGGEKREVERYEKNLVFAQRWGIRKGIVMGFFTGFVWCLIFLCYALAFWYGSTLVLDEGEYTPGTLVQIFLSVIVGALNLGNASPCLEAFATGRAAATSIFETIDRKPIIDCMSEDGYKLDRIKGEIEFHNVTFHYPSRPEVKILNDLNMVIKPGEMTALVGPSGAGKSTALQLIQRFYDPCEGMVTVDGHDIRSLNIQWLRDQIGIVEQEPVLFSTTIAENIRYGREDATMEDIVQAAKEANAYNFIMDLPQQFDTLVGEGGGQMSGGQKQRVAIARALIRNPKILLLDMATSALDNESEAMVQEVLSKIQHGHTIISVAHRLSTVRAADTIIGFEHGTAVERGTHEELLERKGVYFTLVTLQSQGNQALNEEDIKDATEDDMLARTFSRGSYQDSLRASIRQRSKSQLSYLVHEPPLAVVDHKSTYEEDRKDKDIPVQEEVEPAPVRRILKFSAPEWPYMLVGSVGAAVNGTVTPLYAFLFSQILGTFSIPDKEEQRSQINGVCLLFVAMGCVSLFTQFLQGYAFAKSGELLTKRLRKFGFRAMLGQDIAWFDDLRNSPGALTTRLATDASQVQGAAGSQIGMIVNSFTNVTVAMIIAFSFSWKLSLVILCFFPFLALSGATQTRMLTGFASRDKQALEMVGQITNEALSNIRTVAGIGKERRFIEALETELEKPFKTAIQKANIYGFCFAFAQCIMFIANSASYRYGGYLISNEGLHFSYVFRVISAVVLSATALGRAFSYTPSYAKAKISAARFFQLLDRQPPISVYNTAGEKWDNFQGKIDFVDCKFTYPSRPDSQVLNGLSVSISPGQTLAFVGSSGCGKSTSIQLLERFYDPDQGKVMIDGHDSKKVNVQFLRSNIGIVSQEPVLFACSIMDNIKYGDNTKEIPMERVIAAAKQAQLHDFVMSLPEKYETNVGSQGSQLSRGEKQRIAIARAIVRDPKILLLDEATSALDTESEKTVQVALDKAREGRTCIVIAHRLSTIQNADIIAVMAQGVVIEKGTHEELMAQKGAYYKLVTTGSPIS
# Lysophosphatidic acid receptor 1 (Homo sapiens, UniProt Q92633), sequence (Q92633 whole entry): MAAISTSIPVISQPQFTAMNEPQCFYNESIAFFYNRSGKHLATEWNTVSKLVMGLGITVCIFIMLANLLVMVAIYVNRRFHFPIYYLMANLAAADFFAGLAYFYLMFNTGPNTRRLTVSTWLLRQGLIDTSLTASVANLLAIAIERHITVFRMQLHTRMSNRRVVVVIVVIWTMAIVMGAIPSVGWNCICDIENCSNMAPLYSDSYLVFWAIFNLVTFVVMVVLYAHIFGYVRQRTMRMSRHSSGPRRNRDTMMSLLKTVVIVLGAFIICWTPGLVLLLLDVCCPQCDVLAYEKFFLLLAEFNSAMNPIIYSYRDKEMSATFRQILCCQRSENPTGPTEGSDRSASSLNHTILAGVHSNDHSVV
# ATP-binding cassette sub-family C member 3, sequence (O15438 whole entry): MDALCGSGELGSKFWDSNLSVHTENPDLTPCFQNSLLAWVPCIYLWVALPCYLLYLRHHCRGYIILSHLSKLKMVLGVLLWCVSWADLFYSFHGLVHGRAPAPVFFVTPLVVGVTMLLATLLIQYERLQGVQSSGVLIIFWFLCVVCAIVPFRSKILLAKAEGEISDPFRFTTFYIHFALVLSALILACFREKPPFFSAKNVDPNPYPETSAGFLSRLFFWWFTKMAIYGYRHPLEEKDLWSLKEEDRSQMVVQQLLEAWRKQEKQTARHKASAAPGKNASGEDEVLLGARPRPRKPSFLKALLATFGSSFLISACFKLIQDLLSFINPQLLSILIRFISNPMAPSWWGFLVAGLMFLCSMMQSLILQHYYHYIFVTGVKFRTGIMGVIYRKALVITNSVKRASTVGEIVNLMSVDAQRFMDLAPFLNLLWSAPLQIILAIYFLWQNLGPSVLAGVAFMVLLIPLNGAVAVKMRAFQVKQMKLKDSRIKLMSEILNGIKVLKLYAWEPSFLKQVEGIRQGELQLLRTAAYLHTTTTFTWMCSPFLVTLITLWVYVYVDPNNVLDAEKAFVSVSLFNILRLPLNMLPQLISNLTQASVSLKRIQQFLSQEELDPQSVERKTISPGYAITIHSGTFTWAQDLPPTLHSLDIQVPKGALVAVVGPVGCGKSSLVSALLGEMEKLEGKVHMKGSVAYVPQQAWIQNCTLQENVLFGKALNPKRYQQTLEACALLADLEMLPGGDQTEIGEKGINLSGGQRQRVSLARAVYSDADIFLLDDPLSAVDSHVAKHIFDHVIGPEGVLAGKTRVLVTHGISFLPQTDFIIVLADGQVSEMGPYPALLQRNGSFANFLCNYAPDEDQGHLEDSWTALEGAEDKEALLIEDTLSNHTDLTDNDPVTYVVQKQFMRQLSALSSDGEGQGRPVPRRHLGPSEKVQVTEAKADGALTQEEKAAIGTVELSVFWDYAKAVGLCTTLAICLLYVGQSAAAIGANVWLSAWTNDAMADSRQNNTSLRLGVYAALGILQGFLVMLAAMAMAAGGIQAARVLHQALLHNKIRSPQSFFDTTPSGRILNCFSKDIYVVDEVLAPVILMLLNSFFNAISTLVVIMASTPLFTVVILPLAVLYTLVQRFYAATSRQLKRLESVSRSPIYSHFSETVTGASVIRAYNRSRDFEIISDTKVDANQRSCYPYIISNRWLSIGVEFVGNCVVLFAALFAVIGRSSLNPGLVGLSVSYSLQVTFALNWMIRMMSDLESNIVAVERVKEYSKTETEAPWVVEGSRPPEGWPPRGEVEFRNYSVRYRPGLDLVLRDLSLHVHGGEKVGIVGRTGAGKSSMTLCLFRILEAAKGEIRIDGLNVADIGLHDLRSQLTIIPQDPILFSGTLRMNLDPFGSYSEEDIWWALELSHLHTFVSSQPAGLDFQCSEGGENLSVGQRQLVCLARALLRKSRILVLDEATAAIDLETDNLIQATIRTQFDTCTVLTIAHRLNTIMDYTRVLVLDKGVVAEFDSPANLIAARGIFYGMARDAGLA
# Lysophosphatidic acid receptor 1 (Mus musculus, UniProt P61793), sequence (P61793 whole entry): as the sequence (Q92633 whole entry) above, with I4A, I8S, P22Q, H40Y, I61V, E193D, N194H, I269V, S331N, T335N counted along it
# ATP-binding cassette sub-family C member 2, sequence (Q92887 whole entry): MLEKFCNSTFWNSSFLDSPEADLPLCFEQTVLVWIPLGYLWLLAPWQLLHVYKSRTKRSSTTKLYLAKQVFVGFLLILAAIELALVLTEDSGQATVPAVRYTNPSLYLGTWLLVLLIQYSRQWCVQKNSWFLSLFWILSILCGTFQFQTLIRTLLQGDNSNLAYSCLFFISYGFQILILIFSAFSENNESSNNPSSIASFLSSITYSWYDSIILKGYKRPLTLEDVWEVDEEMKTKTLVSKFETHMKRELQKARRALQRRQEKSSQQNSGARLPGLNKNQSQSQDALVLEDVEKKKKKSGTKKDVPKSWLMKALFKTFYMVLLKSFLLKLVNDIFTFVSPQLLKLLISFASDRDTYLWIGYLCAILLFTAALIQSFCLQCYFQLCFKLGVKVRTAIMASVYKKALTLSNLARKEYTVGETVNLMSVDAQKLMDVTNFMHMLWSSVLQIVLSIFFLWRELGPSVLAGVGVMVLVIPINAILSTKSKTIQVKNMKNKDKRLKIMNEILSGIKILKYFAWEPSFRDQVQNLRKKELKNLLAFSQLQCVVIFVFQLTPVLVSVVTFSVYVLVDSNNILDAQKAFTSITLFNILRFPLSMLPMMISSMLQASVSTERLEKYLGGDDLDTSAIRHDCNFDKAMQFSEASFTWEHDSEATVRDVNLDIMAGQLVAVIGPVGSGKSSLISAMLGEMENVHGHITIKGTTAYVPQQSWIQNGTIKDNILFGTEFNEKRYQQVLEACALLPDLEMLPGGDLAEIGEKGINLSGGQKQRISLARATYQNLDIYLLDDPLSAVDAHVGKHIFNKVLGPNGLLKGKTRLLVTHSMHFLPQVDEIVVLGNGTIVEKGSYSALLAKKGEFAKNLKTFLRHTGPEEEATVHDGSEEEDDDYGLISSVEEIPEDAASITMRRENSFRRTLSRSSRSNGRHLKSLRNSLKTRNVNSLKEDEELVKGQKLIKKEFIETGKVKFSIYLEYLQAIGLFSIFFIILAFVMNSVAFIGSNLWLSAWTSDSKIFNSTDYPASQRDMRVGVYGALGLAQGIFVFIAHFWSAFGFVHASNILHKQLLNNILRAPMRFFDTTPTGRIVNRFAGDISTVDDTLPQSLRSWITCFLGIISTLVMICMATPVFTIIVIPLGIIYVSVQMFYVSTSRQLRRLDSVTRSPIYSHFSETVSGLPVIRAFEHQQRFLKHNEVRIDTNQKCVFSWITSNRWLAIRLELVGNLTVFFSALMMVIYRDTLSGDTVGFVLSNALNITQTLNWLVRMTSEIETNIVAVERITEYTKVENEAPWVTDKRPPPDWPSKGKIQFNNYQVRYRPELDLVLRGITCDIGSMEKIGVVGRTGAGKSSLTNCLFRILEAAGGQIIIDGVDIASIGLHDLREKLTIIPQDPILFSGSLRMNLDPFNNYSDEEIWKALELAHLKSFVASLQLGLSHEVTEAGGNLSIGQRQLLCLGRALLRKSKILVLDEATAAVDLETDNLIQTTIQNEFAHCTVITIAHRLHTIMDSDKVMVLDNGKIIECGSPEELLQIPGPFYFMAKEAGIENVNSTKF
# BSEP, sequence (O95342 whole entry): as the sequence (O95342 whole entry) above
structure (smiles),measurement,setting,value
Cc1nc(-c2nnn(C)c2NC(=O)O[C@H](C)c2ccccc2Cl)ccc1NC(=O)[C@H]1CCCC[C@@H]1C(=O)O,IC50,[1],31.6 nM
same,chromatographic logD,[2],1.18
same,microsomal CLint at 0.5 µM,[3],2.7 µL/min/mg
same,microsomal CLint at 0.5 µM,[4],0.4 µL/min/mg
same,inhibition at 50 µM,BSEP,16%
same,IC50,[5],15.8 nM
same,solubility,[6],318 µM
same,IC50,Bile salt export pump,> 100000 nM
same,ED50,Mus musculus [7],0.1 mg/kg
same,IC50,[8],37.2 nM
same,clearance,[9],17.1 mL/min/kg
same,Vd,[10],2.1 L/kg
same,bioavailability,[11],22%
same,half-life,[12],4.19 h
same,Cmax,[13],3930 ng/mL
same,fCmax,[14],251 ng/mL
same,AUClast,[15],6720 h/ng/mL
same,fAUClast,[16],430 h/ng/mL
same,Tlast,[17],8 h
same,Cmax,[18],2620 ng/mL
same,fCmax,[19],167 ng/mL
same,AUClast,[20],4040 h/ng/mL
same,fAUClast,[21],257 h/ng/mL
same,Tlast,[22],24 h
Cc1noc(-c2ccc(-c3ccc(C4(C(=O)O)CC4)cc3)cc2)c1NC(=O)O[C@H](C)c1ccccc1 [BMS-986020],IC50,Bile salt export pump,2000 nM
same,IC50,[23],7940 nM
same,IC50,[24],50100 nM
same,IC50,[25],20000 nM
same,IC50,[26],6310 nM
same,IC50,[27],158 nM
same,IC50,[28],631 nM
COC(=O)c1ccc2c(c1)NC(=O)/C2=C(\Nc1ccc(N(C)C(=O)CN2CCN(C)CC2)cc1)c1ccccc1 [NINTEDANIB],Activity,Mus musculus [29],23%
